Source: patent US7408024B2, “Somatostatin antagonists” (The Administrators of the Tulane Educational Fund, priority 2001, dated 2008)
Where a SMILES comes first, the peptide text is derived from it. Bridges are numbered along the chain shown (N, C = ends). [ ]: non-standard residue; d: D form. Phe(4-Cl) = N[C@@H](Cc1ccc(Cl)cc1)C(=O)O; dNMeW = CN[C@H](Cc1c[nH]c2ccccc12)C(=O)O; 2Nal = N[C@@H](Cc1ccc2ccccc2c1)C(=O)O; 3Pal = N[C@@H](Cc1cccnc1)C(=O)O; NMeK = CN[C@@H](CCCCN)C(=O)O

Tests used:
hsst5 = molecular target: T1, hsst5 (Homo sapiens, UniProt P35346); test: Radioligand binding, cloned human sst5 receptor (CHO-K1 membranes); conditions: [125I]Tyr11-SRIF, CHO-K1 cell membranes; single values = one binding experiment; read-out: K1 ± SEM hsst5
T1 construct: each containing the entire coding region of the full-length receptors; expressed in transfected cells
T1 sequence (P35346 whole entry): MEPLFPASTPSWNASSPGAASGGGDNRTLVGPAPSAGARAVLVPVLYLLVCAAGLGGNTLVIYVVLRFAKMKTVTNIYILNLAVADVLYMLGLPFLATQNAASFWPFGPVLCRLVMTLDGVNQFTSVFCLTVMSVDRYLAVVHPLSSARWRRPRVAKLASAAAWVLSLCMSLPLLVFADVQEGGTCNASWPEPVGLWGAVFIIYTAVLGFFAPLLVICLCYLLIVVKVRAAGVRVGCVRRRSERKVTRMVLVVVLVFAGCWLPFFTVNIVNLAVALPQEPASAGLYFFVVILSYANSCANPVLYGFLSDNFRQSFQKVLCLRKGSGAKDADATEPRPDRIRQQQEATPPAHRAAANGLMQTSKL
Text: (§1) The genomic clones containing the human somatostatin receptors (hsstr1-5) (Yamada, Y., et al. al., Proc. Natl. Acad. Sci. USA. 1992, 89, 251-255; Yasuda, K., et al., J. Biol. Chem. 1992, 267, 20422-20428; Yamada, Y., et al., Mol. Pharmacol. 1992, 42, 2136-2142; Rohrer, L., et al., Proc. Natl. Acad. Sci. USA. 1993, 90, 4196-4200.), were kindly provided by Dr. Graeme I. Bell (University of Chicago). The hsstr1, hsstr2, hsstr3, hsstr4 and hsstr5 cDNAs were isolated as a 1.5-kb PstI-XmnI fragment, 1.7-kb BamHI-HindIII fragment, 2.0-kb NcoI-HindIII fragment, 1.4-kb NheI-NdeI fragment, and a 1.2-kb HindIII-XbaI fragment, respectively, each containing the entire coding region of the full-length receptors. These fragments were independently subdloned into the corresponding restriction endonuclease sites in the mammalian expression vector pCMV5, downstream from the human cytomegalovirus (CMV) promoter, to produce the expression plasmids pCMV5/hsstr1, pCMV5/hsstr2, pCMV5/hsstr3, pCMV5/hsstr4 and pCMV5/hsstr5. For transfection into CHO-K1 cells, a plasmid, pRSV-neo (American Type Culture Collection, Rockville, Md.), carrying the neomycin mammalian cell selectable marker was added.
(§2) Transfections were performed by the calcium phosphate method. CHO-K1 cells are maintained in α-minimum essential medium (α-MEM; Gibco) supplemented with 10% fetal calf serum and transfected with each of the expression plasmids using calcium phosphate precipitation. Clones that had inherited the expression plasmid were selected in α-MEM supplemented with 500 μg mL^−1 of geneticin (G418; Gibco). Independent CHO-K1 clones were picked by glass-ring cloning and expanded in culture in the selective media. Membranes were prepared from the isolated clones and hsstr expression was initially assessed for binding with [^125I]Tyr^11-SRIF and [^125]IMK-678 (for sstr2).
(§3) Cell membranes of the 5 receptor types were obtained from homogenates (Polytron setting 6, 15 sec) of the corresponding CHO-K1 cells, in ice-cold Tris-HCl (50 mM) and centrifuged (39000 g, 10 min×2), with an intermediate resuspension in fresh buffer. The final pellets are resuspended in Tris-HCl (10 mM) for assay. Aliquots of the membranes are incubated (30 min at 37° C.) with 0.05 nM [^125I]Tyr^11-SRIF (types 1,3,4,5) or [^125I]MK-678 (type 2) in 50 mM HEPES (pH 7.4) containing BSA (10 mg mL^−1); MgCl2 (5 mM), Trasylol (200 kIU mL^−1), bacitracin (0.02 mg mL^−1), and phenylmethanesulfonyl fluoride (0.02 mg mL^−1). The final assay volume is 0.3 mL and incubations are terminated by rapid filtration through GF/C filters pre-soaked in 0.3% poly(ethylenimine) using a Brandel rapid filtration module. Each tube and filter is then washed with aliquots of cold buffer (3×5 mL).
(§4) Specific binding is. defined as the total radioligand bound minus that bound in the presence of 1.0 μM SRIF.

hsst2 = molecular target: T2, hsst2 (Homo sapiens, UniProt P30874); test: Radioligand binding, cloned human sst2 receptor (CHO-K1 membranes); conditions: [125I]MK-678, CHO-K1 cell membranes; single values = one binding experiment; read-out: K1 ± SEM hsst2
T2 construct: each containing the entire coding region of the full-length receptors; expressed in transfected cells
T2 sequence (P30874 whole entry): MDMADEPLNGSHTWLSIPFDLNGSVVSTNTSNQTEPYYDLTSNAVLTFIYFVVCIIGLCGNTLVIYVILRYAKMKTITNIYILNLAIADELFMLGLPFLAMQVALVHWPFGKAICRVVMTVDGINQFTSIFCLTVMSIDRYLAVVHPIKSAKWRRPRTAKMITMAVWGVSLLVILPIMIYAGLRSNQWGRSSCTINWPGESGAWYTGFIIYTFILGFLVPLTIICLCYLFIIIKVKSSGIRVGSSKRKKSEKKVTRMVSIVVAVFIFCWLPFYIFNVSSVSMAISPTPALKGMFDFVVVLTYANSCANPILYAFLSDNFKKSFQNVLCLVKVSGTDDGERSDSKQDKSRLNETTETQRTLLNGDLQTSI
Text: as §1, §2, §3, §4

hsst3 = molecular target: T3, hsst3 (Homo sapiens, UniProt P32745); test: Radioligand binding, cloned human sst3 receptor (CHO-K1 membranes); conditions: [125I]Tyr11-SRIF, CHO-K1 cell membranes; single values = one binding experiment; read-out: K1 ± SEM hsst3
T3 construct: each containing the entire coding region of the full-length receptors; expressed in transfected cells
T3 sequence (P32745 whole entry): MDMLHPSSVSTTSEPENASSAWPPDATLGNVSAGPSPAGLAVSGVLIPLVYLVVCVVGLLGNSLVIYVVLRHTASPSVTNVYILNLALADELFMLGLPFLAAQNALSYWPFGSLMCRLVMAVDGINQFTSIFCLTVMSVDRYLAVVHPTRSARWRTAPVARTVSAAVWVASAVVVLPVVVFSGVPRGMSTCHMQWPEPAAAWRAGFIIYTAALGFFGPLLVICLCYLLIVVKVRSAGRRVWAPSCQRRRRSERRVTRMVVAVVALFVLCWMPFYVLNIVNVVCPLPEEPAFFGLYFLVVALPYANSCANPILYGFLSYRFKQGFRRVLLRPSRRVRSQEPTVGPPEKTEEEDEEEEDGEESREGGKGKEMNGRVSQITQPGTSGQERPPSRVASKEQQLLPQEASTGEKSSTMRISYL
Text: as §1, §2, §3, §4

hsst1 = molecular target: T4, hsst1 (Homo sapiens, UniProt P30872); test: Radioligand binding, cloned human sst1 receptor (CHO-K1 membranes); conditions: [125I]Tyr11-SRIF, CHO-K1 cell membranes; single values = one binding experiment; read-out: K1 ± SEM hsst1
T4 construct: each containing the entire coding region of the full-length receptors; expressed in transfected cells
T4 sequence (P30872 whole entry): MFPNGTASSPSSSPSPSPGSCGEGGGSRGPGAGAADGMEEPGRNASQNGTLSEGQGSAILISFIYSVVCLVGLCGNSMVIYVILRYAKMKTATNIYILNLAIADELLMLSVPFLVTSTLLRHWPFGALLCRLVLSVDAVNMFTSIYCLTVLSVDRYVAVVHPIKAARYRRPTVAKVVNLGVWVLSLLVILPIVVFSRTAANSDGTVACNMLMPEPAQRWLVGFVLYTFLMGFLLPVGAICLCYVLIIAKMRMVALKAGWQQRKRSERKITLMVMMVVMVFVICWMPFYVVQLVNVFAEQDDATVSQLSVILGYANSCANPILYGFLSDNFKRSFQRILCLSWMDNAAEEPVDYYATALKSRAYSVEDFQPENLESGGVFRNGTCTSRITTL
Text: as §1, §2, §3, §4

hsst4 = molecular target: T5, hsst4 (Homo sapiens, UniProt P31391); test: Radioligand binding, cloned human sst4 receptor (CHO-K1 membranes); conditions: [125I]Tyr11-SRIF, CHO-K1 cell membranes; single values = one binding experiment; read-out: K1 ± SEM hsst4
T5 construct: each containing the entire coding region of the full-length receptors; expressed in transfected cells
T5 sequence (P31391 whole entry): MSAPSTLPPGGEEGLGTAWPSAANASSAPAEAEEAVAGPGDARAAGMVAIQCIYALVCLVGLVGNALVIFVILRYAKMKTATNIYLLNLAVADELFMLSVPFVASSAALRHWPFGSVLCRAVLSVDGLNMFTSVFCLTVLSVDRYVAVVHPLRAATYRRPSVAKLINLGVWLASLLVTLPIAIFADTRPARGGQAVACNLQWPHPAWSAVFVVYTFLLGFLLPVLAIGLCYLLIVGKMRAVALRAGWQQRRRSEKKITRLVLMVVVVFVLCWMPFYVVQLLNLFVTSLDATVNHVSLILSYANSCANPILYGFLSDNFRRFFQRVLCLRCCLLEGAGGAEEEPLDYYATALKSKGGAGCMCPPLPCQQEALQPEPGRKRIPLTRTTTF
Text: as §1, §2, §3, §4

[1] = test system: SRIF inhibition of GH release in rat anterior pituitary cells; format: cell-based
Experimental: Anterior pituitaries from adult male rats were collected and dispersed by a previously described trypsin/DNase method. (Murphy, W. A.; Taylor, J.; Moreau, J.-P. and Coy, D. […] Sigma) and nystatin (10,000 U mL^−1; Gibco). The cells were randomly plated at a density of approximately 200,000 cells/well (Costar cluster 24; Rochester Scientific Co., Rochester, N.Y.). The plated cells were maintained in the above Dulbecco's medium in a humidified atmosphere of 95% air/5% CO2 at 37° C. for 4-6 days. In preparation for a hormone challenge, the cells were washed with medium 199 (Gibco, 3×1 mL). […] Sigma Chemical Co.). […] After 3 h incubation in an air/carbon dioxide atmosphere (95/5%, 3 h at 37° C.), the medium was removed and stored at −20° C. until assayed for hormone content. Growth hormone in media was measured by a standard double antibody RIA using components generously supplied by Dr. A. F. Parlow at the National Hormone and Pituitary Program (NHHP) Torrance, Calif.

| Ki (hsst5) | Ki (hsst2) | Ki (hsst3) | Ki (hsst1) | Ki (hsst4) | IC50 [1] | Structure (SMILES) |
| --- | --- | --- | --- | --- | --- | --- |
| 112 ± 19 nM | 9.33 ± 0.62 nM | 140 ± 10.4 nM | 1000 nM | 1000 nM | 2.5 ± 0.2 nM | C[C@@H](O)[C@@H]1NC(=O)[C@H](CCCCN)N(C)C(=O)[C@@H](Cc2c[nH]c3ccccc23)N(C)C(=O)[C@H](Cc2cccnc2)NC(=O)[C@H](NC(=O)[C@@H](N)Cc2ccc(Cl)cc2)CSSC[C@@H](C(=O)N[C@@H](Cc2ccc3ccccc3c2)C(N)=O)NC1=O [Peptide 11, Cpa-cyclo(DCys-3-Pal-NMeDTrp-NMeLys-Thr-Cys)-2-Nal-NH2] (H-[Phe(4-Cl)][dC][3Pal][dNMeW][NMeK]TC[2Nal]-NH2; disulfide 2-7) |
| 40.1 ± 18.8 nM | 36 ± 7.6 nM | 330 ± 126 nM | 1000 nM | 1000 nM | 7.8 ± 2.7 nM | CN[C@@H](Cc1ccc(Cl)cc1)C(=O)N[C@@H]1CSSC[C@@H](C(=O)N[C@@H](Cc2ccc3ccccc3c2)C(N)=O)NC(=O)[C@H]([C@@H](C)O)NC(=O)[C@H](CCCCN)NC(=O)[C@@H](Cc2c[nH]c3ccccc23)NC(=O)[C@H](Cc2cccnc2)NC1=O [Peptide 1, NmeCpa-cyclo(DCys-3-Pal-DTrp-Lys-Thr-Cys)-2-Nal-NH2] |
